{
  "source": "patent US20260144799A1",
  "about": "“COMPOSITION COMPRISING A FIRST RAS INHIBITOR, SECOND RAS INHIBITOR AND A SHP2 INHIBITOR FOR USE IN THE TREATMENT OF CANCER” (Revolution Medicines, Inc., priority 2022, published 2026)",
  "key": {"[1]": {"test_system": "eLL2 KRAS^WT/G12C NRAS^−/− A2 tumors", "assay": "Tumor immune profile by flow cytometry in response to therapy", "assay_type": "in vivo, murine", "conditions": "4 days of treatment, tumors collected 24 hours post last dose, 3 animals/group", "procedure": "Methods: The tumor immune profile of the murine syngeneic eLL2 KRAS^WT/G12C NRAS^−/− A2 tumors (3 animals/group) was evaluated in response to therapy by flow cytometry. The mono- and combination therapies were administered for 4 days at the concentrations described in FIG. 1 A-C. 24 hours post last dose the tumors were collected, tumor tissue was minced, processed with the Dri Tumor & Tissue Dissociation Reagent from BD Biosciences, and homogenized with the gentleMACS™ Dissociator. The cell suspension was incubated at 4° C. for 30 minutes with Mouse BD Fc Block (Clone 2.4G2 from BD Pharmingen), 10 minutes with Blue Dead Cell Stain Kit (from Invitrogen) and 30 min in cell staining buffer. […]"}, "[2]": {"test_system": "eLL2 KRAS^WT/G12C NRAS^−/− A2 model", "assay": "Tumor cell growth in vivo, murine syngeneic eLL2 KRAS^WT/G12C NRAS^−/− A2 model", "parameters": "species or system C57BL/6J mice", "conditions": "on treatment; RMC-4550 30 mg/kg po qd", "procedure": "Methods: Effects of Compound A and combination therapy with Compound B and/or RMC-4550 (a SHP2 inhibitor) on tumor cell growth in vivo were evaluated in the murine syngeneic eLL2 KRAS^WT/G12C NRAS^−/− A2 model using female C57BL/6J mice (6-8 weeks old). Mice were implanted with tumor cells (3×10^6 cells/mouse) in DMEM medium without supplements subcutaneously in the upper right flank. Once tumors reached an average size of ˜130 mm^3, mice were randomized to treatment groups to start the administration of test articles or vehicle. Compound A was administered by oral gavage once daily (po qd) at 200 mg/kg, compound B was administered by oral gavage once daily (po qd) at 25 mg/kg and RMC-4550 was administered by oral gavage once daily (po qd) at 30 mg/kg. In the dual combinations the compounds were administered at the same dose as the monotherapies qd. In the triple combination Compound A was dosed at 200 mg/kg po qd, Compound B was dosed at 50 mg/kg po q2d and RMC-4550 was dosed at 20 mg/kg po qd. The administration of Compound A, Compound B and RMC-4550 was ceased after 60 days of treatment in the monotherapy and combination groups. Body weight and tumor volume (using calipers) was measured twice weekly until study endpoints."}},
  "data": [
    {"smiles": "Cc1nc(N2CCC3(CC2)CO[C@@H](C)[C@H]3N)c(CO)nc1-c1cccc(Cl)c1Cl", "note": "[RMC-4550]", "values": [
      {"measurement": "Ly6C+ myeloid derived suppressor cells in tumor", "setting": "[1]", "result": "only a slight decrease"},
      {"measurement": "effect on tumor growth (in words)", "setting": "[2]", "result": "tumor growth inhibition"}
    ]}
  ]
}
